Consider ten compounds from patent US8173689B2 (Novartis AG, priority 2006, dated 2012).

For one test, the target named is T1, kinase domain of PDGFRβ (Homo sapiens, UniProt P09619).
T1 construct: The kinase domain of PDGFRβ was assayed in 50 mM Hepes; purchased Invitrogen P3082
The test is described as follows: Inhibition of PDGFRb kinase signaling in an in vitro biochemical assay (alphascreen). Particulars: tested at about 1 μM, read-out: PDGFRβ percent inhibition. For orientation: In Alpha technology, singlet oxygen from a donor bead excites a nearby acceptor bead.

A further test concerns the target T2, kinase domain of cKIT (Homo sapiens, UniProt P10721).
T2 construct: The kinase domain of cKIT was assayed in 50 mM Hepes; purchased Upstate 14-559
As to the kind of experiment: Inhibition of cKIT kinase signaling in an in vitro biochemical assay (alphascreen). Particulars: tested at about 1 μM, read-out: cKit percent inhibition.

Test [1] deals with T3, cytoplasmic domain of the human CSF-1R (Homo sapiens, UniProt P07333).
T3 construct: Recombinant protein corresponding to the cytoplasmic domain of the human CSF-1R; purchased Invitrogen Corporation, Carlsbad, Calif; PV3249
T3 sequence (P07333 539-972 limits assumed): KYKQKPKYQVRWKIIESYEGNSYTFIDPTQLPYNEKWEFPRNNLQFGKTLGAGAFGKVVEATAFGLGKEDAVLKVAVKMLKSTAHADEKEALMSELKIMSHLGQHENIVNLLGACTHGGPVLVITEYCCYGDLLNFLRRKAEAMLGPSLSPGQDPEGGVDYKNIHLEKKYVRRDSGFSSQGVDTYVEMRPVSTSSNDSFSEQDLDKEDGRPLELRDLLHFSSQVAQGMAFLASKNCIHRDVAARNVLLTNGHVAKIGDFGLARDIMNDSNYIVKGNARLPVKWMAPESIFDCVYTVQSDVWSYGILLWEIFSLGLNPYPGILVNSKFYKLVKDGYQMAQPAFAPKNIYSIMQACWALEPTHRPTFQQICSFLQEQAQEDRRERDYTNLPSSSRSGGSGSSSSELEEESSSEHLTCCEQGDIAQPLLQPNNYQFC
As to the kind of experiment: In vitro kinase assay for colony stimulating factor-1 receptor (AlphaScreen). Format: biochemical. The conditions noted are these: tested at about 1 μM, read-out: CSF-1R percent inhibition. In a few lines: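 At a low ATP level of 1 μM, phosphate transfer by the cytoplasmic-domain kinase (4 nM) was quantified with an AlphaScreen anti-phosphotyrosine bead pair.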

Test [2] has as its system MNFS60 (murine AML cells). The test is described as follows: Cell viability assay in MCSF dependent MNFS60 cells (Cell Titer Glo). Format: cell-based. The conditions noted are these: Mus musculus, tested at about 1 μM, read-out: M-NFS-60 CP percent inhibition. A digest of the protocol:
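3-fold DMSO dilution series (500× stocks); MCSF 10 ng/ml final; 72 hrs, 37° C., 5% CO2; CellTiter-Glo read-out; n=3; EC50 fitted.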
(ATP-based viability assays read luminescence as a measure of living cells.)

Like-named read-outs stand apart in the source and are kept apart here.

T1 sequence (P09619 600-962 limits assumed): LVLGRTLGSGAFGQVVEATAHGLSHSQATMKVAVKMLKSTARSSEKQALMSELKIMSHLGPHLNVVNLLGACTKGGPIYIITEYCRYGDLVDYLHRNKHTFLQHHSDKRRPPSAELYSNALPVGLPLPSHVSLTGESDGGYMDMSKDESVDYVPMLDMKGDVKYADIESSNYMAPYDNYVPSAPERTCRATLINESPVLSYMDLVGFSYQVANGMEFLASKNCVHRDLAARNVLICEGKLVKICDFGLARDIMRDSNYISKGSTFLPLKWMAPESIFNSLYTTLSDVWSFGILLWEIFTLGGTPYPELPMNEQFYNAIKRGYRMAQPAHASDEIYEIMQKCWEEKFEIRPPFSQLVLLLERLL
T2 sequence (P10721 589-937 limits assumed): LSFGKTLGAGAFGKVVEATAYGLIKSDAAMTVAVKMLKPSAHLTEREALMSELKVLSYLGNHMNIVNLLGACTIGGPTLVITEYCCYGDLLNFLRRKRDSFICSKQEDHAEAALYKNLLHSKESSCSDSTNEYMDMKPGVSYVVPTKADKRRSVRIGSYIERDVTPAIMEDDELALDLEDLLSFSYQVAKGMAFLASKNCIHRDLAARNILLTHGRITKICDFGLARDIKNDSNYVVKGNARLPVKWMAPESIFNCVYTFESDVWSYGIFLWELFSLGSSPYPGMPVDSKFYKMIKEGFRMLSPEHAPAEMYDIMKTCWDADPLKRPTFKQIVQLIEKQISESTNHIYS

Regarding `CNC(=O)c1cc(Oc2ccc3nc(NCC4CCCN(C(=O)NC(C)C)C4)sc3c2)ccn1` (stereo not shown) [Example 337, 4-(2-((1-(isopropylcarbamoyl)piper-idin-3-yl)methylamino)benzo[d]thiazol-6-yloxy)-N-methylpicolinamide], the inhibition at 1 µM on kinase domain of PDGFRβ was 0%; on kinase domain of cKIT, 14%; in test [1] it was 95%; in test [2] (MCSF dependent MNFS60 cells), 19%.

For the compound `CNC(=O)c1cc(Oc2ccc3nc(N[C@H]4CCC[C@H]4O)sc3c2)ccn1` [Example 322, 4-(2-((1S,2R)-2-hydroxycyclopentylamino)benzo[d]thiazol-6-yloxy)-N-methylpicolinamide], the inhibition at 1 µM was 11% at kinase domain of PDGFRβ, 18% on kinase domain of cKIT, 99% in test [1] and 21% in test [2] (MCSF dependent MNFS60 cells).

`CNC(=O)c1cc(Oc2cc(Cl)c3nc(NCC4CCCCC4)sc3c2)ccn1` [Example 375, 4-(4-chloro-2-(cyclohexylmethylamino)benzo[d]thiazol-6-yloxy)-N-methylpicolinamide]: the inhibition at 1 µM at kinase domain of PDGFRβ is 38%; on kinase domain of cKIT it was 97%; in test [1], 100%; in test [2] (MCSF dependent MNFS60 cells), 19%.

Turning to `C[C@@H](Nc1nc2ccc(Oc3ccnc4ccccc34)cc2s1)C1CCCCC1` [Example 243, (R)-N-(1-cyclohexylethyl)-6-(quinolin-4-yloxy)benzo[d]thiazol-2-amine], the inhibition at 1 µM came to 69% on kinase domain of PDGFRβ (compounds of Table 3), 100% on kinase domain of cKIT (compounds of Table 3), 100% in test [1] (compounds of Table 3) and 76% in test [2] (compounds of Table 3).

With `CNC(=O)c1cc(Oc2ccc3nc(N[C@@H]4CCCC[C@H]4O)sc3c2C)ccn1` [Example 377, 4-(2-((1R,2R)-2-hydroxycyclohexylamino)-7-methylbenzo[d]thiazol-6-yloxy)-N-methylpicolinamide], the inhibition at 1 µM on kinase domain of PDGFRβ came to 49%; on kinase domain of cKIT, 75%; in test [1], 100%; in test [2] (MCSF dependent MNFS60 cells), 93%.

Take `N#Cc1ccc(-c2cc(Oc3ccc4nc(N[C@@H]5CCCC[C@H]5O)sc4c3)ccn2)cn1` [Example 287, 4-(2-((1R,2R)-2-hydroxycyclohexylamino)benzo[d]thiazol-6-yloxy)-2,3'-bipyridine-6'-carbonitrile]: the inhibition at 1 µM at kinase domain of PDGFRβ (compounds of Table 3) turned out to be 20%; on kinase domain of cKIT (compounds of Table 3) it was 57%; in test [1] (compounds of Table 3) it was 100%; in test [2] (compounds of Table 3) it was 35%.

For `CNC(=O)c1cc(Oc2ccc3nc(NCC4CCOCC4)sc3c2)ccn1` [Compound 141, 4-{2-[(tetrahydro-pyran-4-ylmethyl)-amino]-benzothiazol-6-yloxy}-pyridine-2-carboxylic acid methylamide], the inhibition at 1 µM at kinase domain of PDGFRβ amounted to 0%; on kinase domain of cKIT, 1%; in test [1], 100%; in test [2] (MNFS60 cells) it was 22%.

For `c1cncc(CNc2nc3ccc(Oc4ccnc5ccccc45)cc3s2)c1` [Example 254, N-(pyridin-3-ylmethyl)-6-(quinolin-4-yloxy)benzo[d]thiazol-2-amine], the inhibition at 1 µM was 0% on kinase domain of PDGFRβ (compounds of Table 3), 98% at kinase domain of cKIT (compounds of Table 3), 100% in test [1] (compounds of Table 3) and 100% in test [2] (compounds of Table 3).

Take `CNC(=O)c1cc(Oc2ccc3nc(Nc4cccc(CCN5CCOCC5)c4)oc3c2)ccn1` [Compound 74, 4-{2-[3-(2-Morpholin-4-yl-ethyl)-phenylamino]-benzo-oxazol-6-yloxy}-pyridine-2-carboxylic acid methylamide]: the inhibition at 1 µM on kinase domain of PDGFRβ turned out to be 31%; on kinase domain of cKIT, 34%; in test [1], 100%; in test [2] (MNFS60 cells), 14%.

On to `Cc1nn(C)c(C)c1-c1cc(Oc2ccc3nc(N[C@@H]4CCCC[C@H]4O)sc3c2)ccn1` [Example 283, (1R,2R)-2-(6-(2-(1,3,5-trimethyl-1H-pyrazol-4-yl)pyridin-4-yloxy)benzo[d]thiazol-2-ylamino)cyclohexanol], for which the inhibition at 1 µM was determined as 20% on kinase domain of PDGFRβ (compounds of Table 3), 38% on kinase domain of cKIT (compounds of Table 3), 99% in test [1] (compounds of Table 3) and 0% in test [2] (compounds of Table 3).

Usually inhibition stands for the drop in the measured response relative to a control, in per cent.
